Source: patent US20100273189A1, “NON SEPARATION ASSAYS WITH SELECTIVE SIGNAL INHIBITORS” (BECKMAN COULTER, INC., priority 2009, published 2010)

Tests used:
PSA = experiment: Screening SSIA by homogeneous PSA immunoassay; type: biochemical; details: PSA 129 ng/mL (S5) vs zero
Description: This example presents one method used for testing of candidate compounds for functionality as SSIA in assays of the present disclosure. Testing was conducted in a model screening immunoassay of the protein PSA. Mouse anti-PSA tests were run using a 96-well microtiter plate format. […] The plate was incubated at 37° C. for 10 minutes. A 5 μL aliquot of the test compound (various concentrations) was added to each well. Chemiluminescence was triggered by the addition of 100 μL of a solution of trigger solution A. The chemiluminescent flash was integrated for 5 seconds after the addition of the trigger solution using a Luminoskan Asent® plate luminometer, (Thermo Fischer Scientific, Inc., Waltham, Mass.).
It is desirable that the improvement factor be at least 2 (S5/S0≧ about 20-30) and more desirable that improvement factor be at least 5 (S5/S0≧ about 50), yet more desirable that S5/S0 be ≧100 in the present screen.

biotinylated HRP = target: T1, biotinylated HRP (Armoracia rusticana, UniProt P00433); experiment: Model system for selection of SSIA (M280 btn-BSA-AK1-streptavidin particles + Btn-HRP:HRP); type: biochemical; details: for S/S0: Btn-HRP 0 ng/mL vs 0; for S/S0 / S1/S0 / S2/S0 / S3/S0 / S4/S0 / effect in the model system / utility as SSIA: SSIA 100 μM; for B-HRP0 light intensity: Btn-HRP 0 ng/mL; for B-HRP0 light intensity / B-HRP1 light intensity / B-HRP10 light intensity / B-HRP100 light intensity / B-HRP250 light intensity: total HRP 500 ng/mL, SSIA final 100 μM; for S1/S0: Btn-HRP 1 ng/mL vs 0; for B-HRP1 light intensity: Btn-HRP 1 ng/mL; for S2/S0: Btn-HRP 10 ng/mL vs 0; for B-HRP10 light intensity: Btn-HRP 10 ng/mL; for S3/S0: Btn-HRP 100 ng/mL vs 0; for B-HRP100 light intensity: Btn-HRP 100 ng/mL; for S4/S0: Btn-HRP 250 ng/mL vs 0; for B-HRP250 light intensity: Btn-HRP 250 ng/mL; for effect in the model system / utility as SSIA: conclusion in words
T1 construct: purchased Roche Diagnostics, Indianapolis, Ind., USA
T1 sequence (P00433 31-338 limits assumed): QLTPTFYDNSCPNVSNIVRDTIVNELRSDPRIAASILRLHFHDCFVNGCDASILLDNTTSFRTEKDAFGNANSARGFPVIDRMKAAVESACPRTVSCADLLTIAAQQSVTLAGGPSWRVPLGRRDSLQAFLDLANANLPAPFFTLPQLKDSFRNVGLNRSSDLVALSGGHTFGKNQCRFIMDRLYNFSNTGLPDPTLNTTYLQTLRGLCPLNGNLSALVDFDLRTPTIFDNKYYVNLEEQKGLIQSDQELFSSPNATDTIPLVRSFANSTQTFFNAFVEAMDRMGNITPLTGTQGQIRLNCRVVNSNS
Description: The model system uses a microparticle conjugated to BSA (bovine serum albumin) labeled with a […] and acridan ketenedithioacetal chemiluminescent label (AK1) as the chemiluminescent-labeled sbp, and biotinylated HRP as the activator-labeled specific binding pair. In the model system, varying amounts of Btn-HRP is added to the chemiluminescent-labeled specific binding pair at 0, 1, 10, 100 and 250 ng/mL. Additional unlabeled HRP is added to reach a total HRP of concentration of 500 ng/mL in each reaction mixture. The unlabeled HRP in combination with the activator-labeled sbp was provided to the chemiluminescent-labeled sbp microparticles to emulate sample. A compound for assessment as an SSIA was also added. This reaction mixture of the model system is then triggered by addition of trigger solution in a manner of assays of the present disclosure.
To prepare the chemiluminescent-labeled sbp on microparticles, Bovine Serum Albumin (BSA) was biotinylated with 4× molar excess of biotin-LC-sulfoNHS (Pierce Biotechnology Inc., Rockford, Ill., USA). Unbound reactants were removed via desalting or dialysis. The biotin-BSA was then reacted with a 5× molar excess of acridan ketenedithioacetal AK1 in 20 mM sodium phosphate pH 7.2: DMSO 75:25, v/v) followed by desalting in the same buffer. The dual labeled (biotin and AK1) BSA was then coupled with tosyl activated M-280 microparticles (Invitrogen Corporation, Carlsbad, Calif., USA) in a 0.1 M borate buffer pH 9.5 at a concentration of ca. 20 μg labeled BSA per mg of microparticles for 16-24 h at 40° C. After coupling the microparticles were stripped for 1 h at 40° C. with 0.2 M TRIS base, 2% SDS, pH ˜11. The stripping process was repeated one additional time. Microparticles were then suspended in a 0.1% BSA/TRIS buffered saline (BSA/TBS) buffer and streptavidin (SA) was added at approximately 15 μg SA per mg microparticles. Streptavidin was mixed with the microparticles for 45-50 min at room temperature. The microparticles were then washed three times and suspended in the same BSA/TBS.
HRP, (Roche Diagnostics, Indianapolis, Ind., USA) was biotinylated with 4× molar excess of biotin-LC-sulfoNHS (Pierce Biotechnology Inc., Rockford, Ill., USA). Unbound reactants were removed via desalting or dialysis.
Each SSIA compound for assessment was dissolved in Buffer II at a concentration at least 10× of final concentration of the reaction mixture (after the addition of the trigger solution)
Paramagnetic particles (PMP): (M280)-(btn-BSA-AK)-(Streptavidin);
Sample Emulator: B-HRP:HRP; 500 ng/mL total with titration of B-HRP:HRP at Total HRP concentration of 500 ng/mL, with Btn-HRP variations: 0, 1, 10, 100 and 250 ng/mL.
SSIA: According to tables below in BUFFER II targeted to give a final concentration of 100 μM.
Trigger solution A is defined above.
5 μl of 1 mg/ml of dual-labeled (biotin and AK1) BSA M280 particles were mixed with 45 μl of working concentration SSIA in Buffer II. The assay volume brought to […] by adding 15 μl of Buffer II. 15 μl of sample containing Btn-HRP:HRP at different ratios (The amount of biotinylated-HRP varied from 0, 1, 10, 100 and 250 ng/mL) was added. The reaction mixture was incubated for 30 min at 37° C., then 100 μL of trigger solution was added and the light intensity recorded. Total volume of reaction mixture, including trigger solution was […] with a final concentration of 100 μM of SSIA.

[1] = test compound final conc. 0.122 mM
[2] = test compound final conc. 122 uM
[3] = test compound final conc. 0.244 mM
[4] = test compound final conc. 0.111 mM

Nc1ccccc1S
S5/S0 (PSA; [1]): 234

O=C(O)/C(O)=C(/O)C(=O)O
S5/S0 (PSA; [1]): 30

O=c1c(O)c(-c2ccccc2)oc2cc(O)ccc12
S5/S0 (PSA; [1]): 14

c1ccc2c(c1)Cc1ccccc1S2
S5/S0 (PSA; [1]): 9

c1ccc2c(c1)Nc1ccccc1O2
S5/S0 (PSA; [1]): 605

O=C(O)c1cccc(O)c1O
S5/S0 (PSA; [1]): 22

O=C(O)/C=C/c1ccc(O)c(O)c1
S5/S0 (PSA; [1]): 116

O=c1c2ccccc2[nH]c2ccccc12
S5/S0 (PSA; [1]): 14

Oc1cccc(O)c1O
S5/S0 (PSA; [1]): 69

COc1ccccc1O
S5/S0 (PSA; [1]): 13

Cc1cc(CO)c(O)c(CO)c1
S5/S0 (PSA; [1]): 23

COC1=C(O)C(=O)O[C@@H]1[C@@H](O)CO
S5/S0 (PSA; [2]): 16

c1ccc2c(c1)Cc1ccccc1O2
S5/S0 (PSA; [1]): 4

NNC(=O)c1ccccc1O
S5/S0 (PSA; test compound final conc. 0.061 mM): 23

Nc1cc(Cl)ccc1O
S5/S0 (PSA; [3]): 205

Oc1ccc(O)c(Br)c1
S5/S0 (PSA; [1]): 570

O=C1O[C@H]([C@H](O)CO)C(O)=C1O
S5/S0 (PSA; [2]): 10.3

O=c1cc(O)c2ccccc2o1
S5/S0 (PSA; [1]): 17

O=C1O[C@H]([C@@H](O)CO)C(O)=C1O [drawing 72]
S5/S0 (PSA; [1]): 423

C=CCc1ccc(O)c(OC)c1
S5/S0 (PSA; [3]): 30

Nc1ccccc1B(O)O
S5/S0 (PSA; [1]): 108

COc1ccccc1N
S5/S0 (PSA; [1]): 7

O=C(O)c1cc(O)c2ccccc2n1
S5/S0 (PSA; [1]): 6

Oc1ccc(Cl)cc1O [drawing 77]
S5/S0 (PSA; [3]): 409

O=C1O[C@H]([C@@H](O)CO)C([O-])=C1O.[Na+] [ascorbate sodium salt (ascorbate anion), ascorbate sodium salt]
S5/S0 (PSA; [1]): 495

Nc1ccccc1O [drawing 47]
S5/S0 (PSA; [1]): 649

Nc1ccc(O)cc1O
S5/S0 (PSA; test compound final conc. 0.030 mM): 161

Oc1ccc(O)c(Cl)c1 [drawing 75]
S5/S0 (PSA; [4]): 229

OB(O)c1cc(Cl)ccc1O
S5/S0 (PSA; [3]): 22

Nc1ncc[nH]1
S5/S0 (PSA; test compound final conc. 24.4 mM): 14

Nc1cc(C[C@H](N)C(=O)O)ccc1O
S5/S0 (PSA; [3]): 448

O=c1c(O)c(-c2ccccc2)oc2ccc(O)cc12
S5/S0 (PSA; [1]): 9

O=C(O)C1c2ccccc2Oc2ccccc21
S5/S0 (PSA; [1]): 7

O[C@@H](CS)[C@@H](O)CS [DTT]
S5/S0 (PSA; test compound final conc. 72 uM): 20

Nc1cccc(Cl)c1O
S5/S0 (PSA; [3]): 300

Cc1cc(-c2cc(C)c(N)c(C)c2)cc(C)c1N [TMB]
S5/S0 (PSA; test compound final conc. 61 uM): 20

O=C(c1ccccc1)C1c2ccccc2Nc2ccccc21
S5/S0 (PSA; [1]): 9

Cn1ccnc1S
S5/S0 (PSA; test compound final conc. 36.7 mM): 102

O=c1ccc2cc(O)c(O)cc2o1
S5/S0 (PSA; [1]): 105

Oc1ccc([C@@H]2Oc3cc(O)c(O)cc3C[C@@H]2O)cc1O
S5/S0 (PSA; [1]): 323

CC1=C(O)C(=O)C(C)O1 (centres unmarked)
S5/S0 (PSA; test compound final conc. 1.25 mM): 237

O=C1C=C(O)C(=O)C=C1O
S5/S0 (PSA; [3]): 14

Nc1ccc2[nH]ncc2c1
S5/S0 (PSA; test compound final conc. 12.2 mM): 10

O=S(=O)([O-])CCCN1c2ccccc2Sc2ccccc21.[Na+]
S5/S0 (PSA; [3]): 50

COc1cc(C(=O)O)cc(OC)c1O [Syringic Acid]
S/S0 (biotinylated HRP): 1 | B-HRP0 light intensity (biotinylated HRP): 14,485 | S1/S0 (biotinylated HRP): 1.6 | B-HRP1 light intensity (biotinylated HRP): 23,707 | S2/S0 (biotinylated HRP): 64.8 | B-HRP10 light intensity (biotinylated HRP): 939,372 | S3/S0 (biotinylated HRP): 547.2 | B-HRP100 light intensity (biotinylated HRP): 7,927,096 | S4/S0 (biotinylated HRP): 658 | B-HRP250 light intensity (biotinylated HRP): 9,530,979

O=S(=O)([O-])CCCOCCCN1c2ccccc2Cc2ccccc21.[Na+]
S5/S0 (PSA; [3]): 6

COc1cc(O)ccc1O
S5/S0 (PSA; [4]): 161

Nc1ccc(C(=O)O)cc1O [drawing 79]
S5/S0 (PSA; [1]): 153

NNC(=O)c1cccnc1 [Nicotinic Hydrazide]
S/S0 (biotinylated HRP): 1 | B-HRP0 light intensity (biotinylated HRP): 42,260 | S1/S0 (biotinylated HRP): 1.4 | B-HRP1 light intensity (biotinylated HRP): 58,356 | S2/S0 (biotinylated HRP): 49.8 | B-HRP10 light intensity (biotinylated HRP): 2,106,471 | S3/S0 (biotinylated HRP): 194.2 | B-HRP100 light intensity (biotinylated HRP): 8,205,320 | S4/S0 (biotinylated HRP): 187.5 | B-HRP250 light intensity (biotinylated HRP): 7,923,092 | effect in the model system / utility as SSIA (biotinylated HRP): no effect

O=S([O-])[O-].[Na+].[Na+] [Na2SO3]
S5/S0 (PSA; test compound final conc. 15 uM): 59

Cc1c(C)c2c(c(C)c1O)CC[C@@](C)(CCC[C@H](C)CCC[C@H](C)CCCC(C)C)O2 (racemic) [(+/−)-alpha-Tocopherol, (±)-a-Tocopherol]
S/S0 (biotinylated HRP): 1 | B-HRP0 light intensity (biotinylated HRP): 2,772 | S1/S0 (biotinylated HRP): 2.3 | B-HRP1 light intensity (biotinylated HRP): 6,468 | S2/S0 (biotinylated HRP): 452.1 | B-HRP10 light intensity (biotinylated HRP): 1,253,187 | S3/S0 (biotinylated HRP): 3088.2 | B-HRP100 light intensity (biotinylated HRP): 8,560,469 | S4/S0 (biotinylated HRP): 3473.4 | B-HRP250 light intensity (biotinylated HRP): 9,628,184

CC1(C)CC(O)CC(C)(C)N1[O] [TEMPOL]
S/S0 (biotinylated HRP): 1 | B-HRP0 light intensity (biotinylated HRP): 22,621 | S1/S0 (biotinylated HRP): 1.5 | B-HRP1 light intensity (biotinylated HRP): 33,873 | S2/S0 (biotinylated HRP): 86.8 | B-HRP10 light intensity (biotinylated HRP): 1,963,369 | S3/S0 (biotinylated HRP): 407.6 | B-HRP100 light intensity (biotinylated HRP): 9,220,799 | S4/S0 (biotinylated HRP): 467.6 | B-HRP250 light intensity (biotinylated HRP): 10,578,104 | effect in the model system / utility as SSIA (biotinylated HRP): no effect

N[C@@H](CS)C(=O)O [Cysteine]
S/S0 (biotinylated HRP): 1 | B-HRP0 light intensity (biotinylated HRP): 35,695 | S1/S0 (biotinylated HRP): 1.6 | B-HRP1 light intensity (biotinylated HRP): 58,203 | S2/S0 (biotinylated HRP): 69.6 | B-HRP10 light intensity (biotinylated HRP): 2,483,411 | S3/S0 (biotinylated HRP): 256.3 | B-HRP100 light intensity (biotinylated HRP): 9,147,371 | S4/S0 (biotinylated HRP): 285.5 | B-HRP250 light intensity (biotinylated HRP): 10,190,505 | effect in the model system / utility as SSIA (biotinylated HRP): no effect
